Data published in US20100028259A1, “USE OF ORGANIC CATION TRANSPORTERS FOR CANCER DIAGNOSIS AND THERAPY” (The Regents of the University of California, priority 2006, published 2010).
Like-named read-outs stand apart in the source and are kept apart here.

Experiments:
MDCK-hOCT1 cells [1] = experiment: Platinum-DNA adduct formation in MDCK-hOCT1 cells; format: cell-based, canine
Description: After incubation at 37° C. and 5% CO2 for 2 hours, the cells were washed with ice-cold PBS three times and harvested. The genomic DNA was isolated from the cells and the platinum content associated with DNA was determined by ICP-MS and normalized for DNA content. Data are expressed as mean±SD from a typical experiment performed in triplicate. Two independent experiments were conducted and similar results were obtained.
After incubation, the cells were washed with ice-cold PBS three times and harvested. Genomic DNA was isolated from the harvested cells and the DNA-associated platinum content was determined by ICP-MS and normalized for the DNA content. Data are expressed as mean±SD of three measurements.
The platinum content associated with genomic DNA was determined as described in Samimi et al., Clin. Cancer Res., 10:4661-4669 (2004) with some modifications. Briefly, the cells were grown in 100 mm×20 mm dishes in the culture medium without any antibiotics to over 90% confluence. For HEK 293 cells, poly-D-lysine coated dishes were used. Then, the cells were incubated in the culture medium containing the specified concentrations of the platinum-based compounds at 37° C. in 5% CO2 for 2 hours (or 25 min as specified). In some experiments, phosphate buffer (PB: 1.06 mM KH2PO4, 2.97 mM Na2HPO4, pH 7.4) containing 155 mM NaCl (PB—Cl buffer) or 103 mM Na2SO4 (PB—SO4 buffer) was used instead of the culture medium as specified. For the OCT inhibitor study, the incubation medium (buffer) also contained disopyramide or cimetidine). If PB—Cl or PB—SO4 buffer was used, the cells were washed with the same buffer once before drug incubation. After incubation, the cells were washed with ice-cold PBS, scraped, and pelleted. Genomic DNA was isolated from the cell pellets using the Wizard® Genomic DNA Purification Kit (Promega, Madison, Wis.) following the manufacturer's instructions. Briefly, the cells were lysed with Nuclei Lysis Solution. After RNA digestion and protein precipitation, the lysates were centrifuged and the resulting supernatant was aliquoted. The genomic DNA prepared from two different aliquots of the supernatant was used for platinum and DNA content determination, respectively. For the determination of platinum, the DNA samples were treated with 70% nitric acid at 65° C. and diluted in the same way as described above. The platinum content was analyzed using ICP-MS and the DNA content was measured by absorption spectroscopy.

MDCK-hOCT1 cells [2] = experiment: Cellular accumulation of platinum in MDCK-hOCT1 cells (ICP-MS); format: in vitro ADME, canine; details: 2-hr exposure
Description: (§1) For the inhibitor studies, the incubation medium also contained disopyramide (150 μM). […] For the inhibitor studies, the incubation medium also contained cimetidine (1.5 mM). […] After drug exposure, the cells were washed with ice-cold PBS three times and harvested by scraping and centrifugation. The cell-associated platinum was determined by ICP-MS and normalized for protein content. Data are expressed as mean±SD from a single experiment performed in triplicate. Experiments were replicated for OCT1 and OCT2, and similar results were obtained.
(§2) The cellular accumulation of platinum was determined as described in Holzer et al., Mol. Pharmacol., 66:817-823 (2004) with some modifications. Briefly, the cells were grown in 100 mm×20 mm dishes in the culture medium without any antibiotics to over 90% confluence. For HEK 293 cells, poly-D-lysine coated dishes were used. For platinum accumulation, the cells were incubated in the culture medium containing the indicated concentrations of the platinum compounds at 37° C. in 5% CO2 for 2 hr unless specified. After incubation, the dishes were immediately placed on ice and the cells were washed with 6 ml of ice-cold PBS for three times and collected with a rubber policeman. The cell pellets were obtained by centrifugation at 400×g and at 4° C. for 15 min. For the OCT inhibitor studies, the incubation medium also contained the indicated inhibitor (i.e., disopyramide or cimetidine) in addition to the platinum-based compounds. The resulting cell pellets were then dissolved into 200 μl of 70% nitric acid at 65° C. for at least 2.5 hours, and then distilled water containing 10 ppb of iridium (Sigma) and 0.1% Triton X-100 was added to the samples to dilute nitric acid to 7%. The platinum content was measured by inductively plasma coupled mass spectrometry (ICP-MS) in the Analytical Facility at the University of California at Santa Cruz (Santa Cruz, Calif.). Cell lysates from a set of identical cultures were used for BCA protein assay.

RKO = experiment: MTT drug sensitivity, colon cancer cell line RKO; format: cell-based, human
Description: (§3) Cytotoxicity of the platinum-based compounds was measured by MTT (thiazolyl blue tetrazolium bromide) assay. Cells were seeded in 100 μl of the culture medium without any antibiotics in 96-well plates at a predetermined cell density. For HEK 293 cells, poly-D-lysine coated plates were used. […] For the OCT inhibitor studies, the inhibitors (i.e., disopyramide or cimetidine) were added to the medium at a specified concentration immediately before the addition of the platinum-based compounds. After incubation for a specified time period, the drug-containing medium was replaced with fresh, drug-free medium and the incubation was continued for a total of 72 hours (start from the addition of platinum-based compounds). Then, the MTT assay was performed similarly as described in Alley et al., Cancer Res., 48:589-601 (1988). […] The maximal cell growth was the cell growth in the medium without any platinum-based compounds; C is the concentration of the platinum-based compound, and γ is the slope factor.
(§4) The cell seeding density was 6,000-, 8,000-, 6,000-, 15,000-12,000- and 4,000 cells/well for HCT116, HT29, RKO, SW620, LS180, and DLD cells, respectively. When cimetidine (1.5 mM) was used, it was added to the wells immediately before the addition of the platinum-based drugs. The resistance factor (RF) was defined as the ratio of the mean IC50 value in the presence to that in the absence of cimetidine. Data are expressed as mean±SD from six measurements, and each measurement was performed in quadruplicate.

HCT116 = experiment: MTT drug sensitivity, colon cancer cell line HCT116; format: cell-based, human
Description: as §3, §4

MDCK-MOCK cells = experiment: Cellular accumulation of platinum in MDCK-MOCK cells (ICP-MS); format: in vitro ADME, canine; details: 2-hr exposure
Description: as §1, §2

HT29 = experiment: MTT drug sensitivity, colon cancer cell line HT29; format: cell-based, human
Description: as §3, §4

HEK-MOCK cells = experiment: Cellular accumulation of platinum in HEK-MOCK cells (ICP-MS); format: in vitro ADME, human; details: cimetidine 1.5 mM
Description: as §1
The cellular accumulation of platinum was determined as described in Holzer et al., Mol. Pharmacol., 66:817-823 (2004) with some modifications. Briefly, the cells were grown in 100 mm×20 mm dishes in the culture medium without any antibiotics to over 90% confluence. For HEK 293 cells, poly-D-lysine coated dishes were used. For platinum accumulation, the cells were incubated in the culture medium containing the indicated concentrations of the platinum compounds at 37° C. in 5% CO2 for 2 hr unless specified. […] The platinum content was measured by inductively plasma coupled mass spectrometry (ICP-MS) in the Analytical Facility at the University of California at Santa Cruz (Santa Cruz, Calif.). […]

[3] = 2-hr exposure, disopyramide 150 μM

With `O=C1[O][Pt]2([NH][C@@H]3CCCC[C@H]3[NH]2)[O]C1=O` [oxaliplatin] the “rb in MDCK-hOCT1” value (MDCK-hOCT1 cells [1]; 20 μM, PB—Cl, 25 min) was 3.08±0.41×10^−6, the “rb in MDCK-hOCT1” value (MDCK-hOCT1 cells [1]; 20 μM, PB—SO4, 25 min) was 1.31±0.29×10^−6 and the “Pt-DNA adduct level in MDCK-hOCT1” value (MDCK-hOCT1 cells [1]; 20 μM, chloride free buffer PB—SO4, 25 min) was 0.00398±0.00089 pmol/μg DNA. For the same molecule, the “DNA-associated platinum level in MDCK-hOCT1” value (MDCK-hOCT1 cells [1]; 20 μM, chloride-containing buffer PB—Cl, 25 min) was 0.00933±0.00124 pmol/μg DNA, the “platinum-DNA adduct level in MDCK-hOCT1, disopyramide-treated” value (MDCK-hOCT1 cells [1]; [3]) was 0.0217±0.0019 pmol/μg DNA and the “rb in MDCK-hOCT1, disopyramide-treated” value (MDCK-hOCT1 cells [1]; [3]) was 7.16±0.63×10^−6. The “platinum-DNA adduct level in MDCK-hOCT1” value (MDCK-hOCT1 cells [1]; 2-hr exposure, oxaliplatin 10 μM, culture medium) was 0.0457±0.0011 pmol/μg DNA, the “cellular platinum accumulation rate in MDCK-hOCT1, disopyramide-treated” value (MDCK-hOCT1 cells [2]; 3 μM, disopyramide 150 μM) was 4.04±0.04 pmol/mg protein-hr and the “cellular platinum accumulation rate in MDCK-hOCT1” value (MDCK-hOCT1 cells [2]; drug 3 μM) was 8.53±0.52 pmol/mg protein-hr. For the same molecule, the “effect of disopyramide on platinum accumulation rate in MDCK-hOCT1” value (MDCK-hOCT1 cells [2]; disopyramide 150 μM) was “two-fold decrease”, the IC50 (RKO; absence of cimetidine, read-out: IC50 Control) was 1.64 ± 0.56 µM and the IC50 (RKO; cimetidine 1.5 mM, read-out: IC50 Cimetidine-treated) was 9.7 ± 2.7 µM. The IC50 (HCT116; HCT116, absence of cimetidine, read-out: IC50 Control) was 2.37 ± 1.44 µM, the IC50 (HCT116; HCT116, cimetidine 1.5 mM, read-out: IC50 Cimetidine-treated) was 18.8 ± 6.19 µM and the “cellular platinum accumulation rate in MDCK-MOCK, disopyramide-treated” value (MDCK-MOCK cells; 3 μM, disopyramide 150 μM) was 3.23±0.31 pmol/mg protein-hour. The “cellular platinum accumulation rate in MDCK-MOCK” value (MDCK-MOCK cells; drug 3 μM) was 2.94±0.11 pmol/mg protein-hr, the IC50 (HT29; HT29, absence of cimetidine, read-out: IC50 Control) was 4.56 ± 1.4 µM and the IC50 (HT29; HT29, cimetidine 1.5 mM, read-out: IC50 Cimetidine-treated) was 52.1 ± 18.5 µM. For the same molecule, the “effect of cimetidine on platinum accumulation / cellular uptake in HEK-MOCK” value (HEK-MOCK cells) was “significant decrease”.
